target: human GluN1/GluN2B NMDA receptors (Homo sapiens, UniProt Q05586+Q13224); experiment: Cell-based calcium flux (FLIPR) assay on cloned human NR1/NR2B ion channels expressed in mammalian cells; details: standard assay; glutamate at ~EC80; FLIPR calcium flux
How it was run: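 Calcium influx followed by FLIPR fluorescence after 5 min compound exposure and a further 5 min co-agonist challenge: 10 μM glycine with glutamate at ~EC80 (standard) or EC40 (HTS).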

Sequence of human GluN1/GluN2B NMDA receptors (Q13224 27-1484, other chains not shown): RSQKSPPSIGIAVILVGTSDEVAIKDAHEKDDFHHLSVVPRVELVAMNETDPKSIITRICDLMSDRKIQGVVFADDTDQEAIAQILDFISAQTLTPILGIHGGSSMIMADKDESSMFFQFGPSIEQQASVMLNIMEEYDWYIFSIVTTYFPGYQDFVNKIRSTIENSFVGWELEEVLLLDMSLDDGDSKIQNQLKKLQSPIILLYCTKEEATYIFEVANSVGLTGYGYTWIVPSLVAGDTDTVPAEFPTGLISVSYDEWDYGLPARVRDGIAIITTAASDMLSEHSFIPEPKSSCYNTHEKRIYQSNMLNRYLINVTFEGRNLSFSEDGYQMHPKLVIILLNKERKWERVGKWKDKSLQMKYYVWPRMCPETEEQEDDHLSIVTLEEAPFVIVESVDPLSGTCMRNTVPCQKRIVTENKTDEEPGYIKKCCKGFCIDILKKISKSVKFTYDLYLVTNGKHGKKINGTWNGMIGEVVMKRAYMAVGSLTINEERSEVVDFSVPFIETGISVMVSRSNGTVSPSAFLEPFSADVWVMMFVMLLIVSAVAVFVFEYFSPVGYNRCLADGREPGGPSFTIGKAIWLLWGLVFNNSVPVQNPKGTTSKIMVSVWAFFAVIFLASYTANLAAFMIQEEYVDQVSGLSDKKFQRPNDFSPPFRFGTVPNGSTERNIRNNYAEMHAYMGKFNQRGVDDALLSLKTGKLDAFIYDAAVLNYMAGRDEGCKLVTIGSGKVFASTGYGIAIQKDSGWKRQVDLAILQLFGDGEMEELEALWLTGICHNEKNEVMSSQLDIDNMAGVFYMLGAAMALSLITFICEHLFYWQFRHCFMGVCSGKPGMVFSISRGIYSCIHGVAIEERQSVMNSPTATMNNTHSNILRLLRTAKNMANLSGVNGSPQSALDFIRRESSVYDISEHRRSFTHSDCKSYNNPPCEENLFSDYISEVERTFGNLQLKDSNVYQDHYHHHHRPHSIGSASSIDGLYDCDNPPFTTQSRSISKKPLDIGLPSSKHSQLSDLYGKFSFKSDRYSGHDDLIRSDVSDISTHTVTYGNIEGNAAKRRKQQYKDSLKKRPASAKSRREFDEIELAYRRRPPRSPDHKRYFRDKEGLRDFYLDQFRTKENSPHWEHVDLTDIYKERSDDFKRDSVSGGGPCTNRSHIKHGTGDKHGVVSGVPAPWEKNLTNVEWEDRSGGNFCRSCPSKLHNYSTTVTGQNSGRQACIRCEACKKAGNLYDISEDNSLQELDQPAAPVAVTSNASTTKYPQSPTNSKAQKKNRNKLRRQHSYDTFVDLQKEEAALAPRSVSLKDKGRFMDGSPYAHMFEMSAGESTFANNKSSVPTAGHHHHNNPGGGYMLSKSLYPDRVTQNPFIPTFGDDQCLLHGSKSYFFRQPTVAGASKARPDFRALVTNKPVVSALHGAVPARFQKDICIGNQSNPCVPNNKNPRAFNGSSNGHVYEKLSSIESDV

Row | SMILES | IC50
1 | CC1(F)CN(c2cnc(OCc3cn(-c4ccc(F)c(C(F)F)c4)nn3)nc2)C1 [Example 420, 2-((1-(3-(Difluoromethyl)-4-fluorophenyl)-1H-1,2,3-triazol-4-yl)methoxy)-5-(3-fluoro-3-methylazetidin-1-yl)pyrimidine] | 0.26 µM
2 | Cc1cccc(-n2cc(COc3ncc(Cl)c(C)n3)nn2)n1 [Example 661, 5-Chloro-4-methyl-2-[[1-(6-methyl-2-pyridyl)triazol-4-yl]methoxy]pyrimidine] | > 2.99 µM
3 | Cc1ccnc(OCc2cn(-c3ccc(F)c(C(F)(F)F)c3)nn2)c1 [Example 429, 2-[[1-[4-Fluoro-3-(trifluoromethyl)phenyl]triazol-4-yl]methoxy]-4-methyl-pyridine] | 0.665 µM
4 | OCc1cnc(OCc2cn(-c3ccc(Cl)c(C(F)F)c3)nn2)nc1 [Example 624, [2-[[1-[4-Chloro-3-(difluoromethyl)phenyl]triazol-4-yl]methoxy]pyrimidin-5-yl]methanol] | 0.02 µM
5 | Cc1cc(-n2cc(COc3nccc(N)n3)nn2)ccc1F [Example 472, 2-[[1-(4-Fluoro-3-methyl-phenyl)triazol-4-yl]methoxy]pyrimidin-4-amine] | 0.149 µM
6 | CC(F)(F)c1cnc(OCc2cn(-c3ccc(F)c(C(F)F)c3)nn2)nc1 [Example 701, 5-(1,1-Difluoroethyl)-2-((1-(3-(difluoromethyl)-4-fluorophenyl)-1H-1,2,3-triazol-4-yl)methoxy)pyrimidine] | 0.958 µM
7 | CC(F)(F)c1cc(-n2cc(COc3ncc(N4CC(F)C4)cn3)nn2)ccc1F [Example 589, 2-((1-(3-(1,1-Difluoroethyl)-4-fluorophenyl)-1H-1,2,3-triazol-4-yl)methoxy)-5-(3-fluoroazetidin-1-yl)pyrimidine] | 0.013 µM
8 | CC(F)(F)c1cc(-n2cc(COc3ccccn3)nn2)ccc1F [Example 554, 2-[[1-[3-(1,1-Difluoroethyl)-4-fluoro-phenyl]triazol-4-yl]methoxy]pyridine] | 1.64 µM
9 | Fc1cnc(OCc2cn(-c3cccc(F)c3F)nn2)nc1 [Example 606, 2-[[1-(2,3-Difluorophenyl)triazol-4-yl]methoxy]-5-fluoro-pyrimidine] | 17.5 µM
10 | Fc1cccc(-n2cc(COc3ncc(Cl)cn3)nn2)c1F [Example 605, 5-Chloro-2-[[1-(2,3-difluorophenyl)triazol-4-yl]methoxy]pyrimidine] | 4.36 µM
11 | Fc1ccc(-n2cc(COc3nccc(-c4ccc[nH]4)n3)nn2)cc1OC(F)F [Example 681, 2-((1-(3-(Difluoromethoxy)-4-fluorophenyl)-1H-1,2,3-triazol-4-yl)methoxy)-4-(1H-pyrrol-2-yl)pyrimidine] | 0.681 µM
12 | OCc1ccnc(OCc2cn(-c3ccc(F)c(Br)c3)nn2)n1 [Example 617, [2-[[1-(3-Bromo-4-fluoro-phenyl)triazol-4-yl]methoxy]pyrimidin-4-yl]methanol] | 0.041 µM
13 | Cc1nccn1-c1ccnc(OCc2cn(-c3ccc(F)c(C(F)F)c3)nn2)n1 [Example 692, 2-((1-(3-(Difluoromethyl)-4-fluorophenyl)-1H-1,2,3-triazol-4-yl)methoxy)-4-(2-methyl-1H-imidazol-1-yl)pyrimidine] | 1.58 µM
14 | Cc1cnc(OCc2nnn(-c3ccc(F)c(C(F)F)c3)c2I)nc1 [Example 425, 2-[[1-[3-(Difluoromethyl)-4-fluoro-phenyl]-5-iodo-triazol-4-yl]methoxy]-5-methyl-pyrimidine] | 0.394 µM
15 | Fc1cnc(OCc2cn(-c3ccc(F)c(F)c3)nn2)nc1 [Example 598, 2-[[1-(3,4-Difluorophenyl)triazol-4-yl]methoxy]-5-fluoro-pyrimidine] | 1.45 µM
16 | Fc1ccc(-n2cc(COc3nccc(NC4CC4)n3)nn2)cc1C(F)F [Example 690, N-Cyclopropyl-2-((1-(3-(difluoromethyl)-4-fluorophenyl)-1H-1,2,3-triazol-4-yl)methoxy)pyrimidin-4-amine] | 0.008 µM
17 | CC(F)(F)c1cc(-n2cc(COc3ncc(N4CCC4)cn3)nn2)ccc1F [Example 588, 5-(Azetidin-1-yl)-2-[[1-[3-(1,1-difluoroethyl)-4-fluoro-phenyl]triazol-4-yl]methoxy]pyrimidine] | 0.034 µM
18 | Cc1c(COc2ncc(C3CC3)cn2)nnn1-c1ccc(F)c(C(C)(F)F)c1 [Example 594, 5-Cyclopropyl-2-[[1-[3-(1,1-difluoroethyl)-4-fluoro-phenyl]-5-methyl-triazol-4-yl]methoxy]pyrimidine] | 0.171 µM

same assay, conditions: standard assay; human GluN1/GluN2B, calcium flux (FLIPR), glutamate ~EC80

Row | SMILES | IC50
19 | Cc1cc(-n2cc(COc3ncc(C(C)(C)O)cn3)nn2)ccc1F [Example 181, 2-[2-[[1-(4-Fluoro-3-methyl-phenyl)triazol-4-yl]methoxy]pyrimidin-5-yl]propan-2-ol] | 0.097 µM
20 | CC(F)(F)c1cccc(-n2cc(COc3ncc(C(C)(O)C(F)(F)F)cn3)nn2)c1 (racemic) [Example 305, (R/S)-2-[2-[[1-[3-(1,1-Difluoroethyl)phenyl]triazol-4-yl]methoxy]pyrimidin-5-yl]-1,1,1-trifluoro-propan-2-ol] | 0.496 µM
21 | CC(Oc1ncccn1)c1cn(-c2ccc(Cl)c(OC(F)F)c2)nn1 (single isomer, unassigned) [Example 55, (S*)-2-[1-[1-[4-Chloro-3-(difluoromethoxy)phenyl]triazol-4-yl]ethoxy]pyrimidine] | 0.008 µM
22 | CCc1cnc(OCc2cn(-c3ccc(OC(F)(F)F)cc3)nn2)nc1 [Example 340, 5-Ethyl-2-[[1-[4-(trifluoromethoxy)phenyl]triazol-4-yl]methoxy]pyrimidine] | 0.794 µM
23 | Cc1cnc(OCc2cn(-c3cccc(Br)c3)nn2)nc1 [Example 234, 2-[[1-(3-Bromophenyl)triazol-4-yl]methoxy]-5-methyl-pyrimidine] | 0.022 µM
24 | Fc1ccc(-n2cc(CNc3ncc(Cl)cn3)nn2)cc1C(F)F [Example 212, 5-Chloro-N-[[1-[3-(difluoromethyl)-4-fluoro-phenyl]triazol-4-yl]methyl]pyrimidin-2-amine] | 0.074 µM
25 | Fc1cnc(OCc2cn(-c3cccc(OC(F)(F)F)c3)nn2)nc1 [Example 348, 5-Fluoro-2-[[1-[3-(trifluoromethoxy)phenyl]triazol-4-yl]methoxy]pyrimidine] | 0.447 µM
26 | CC(C)c1cc(-n2cc(COc3ncc(C(C)(C)O)cn3)nn2)ccc1F [Example 179, 2-[2-[[1-(4-Fluoro-3-isopropyl-phenyl)triazol-4-yl]methoxy]pyrimidin-5-yl]propan-2-ol] | 0.029 µM
27 | CCc1cnc(OCc2cn(-c3cccc(OC(F)(F)F)c3)nn2)nc1 [Example 351, 5-Ethyl-2-[[1-[3-(trifluoromethoxy)phenyl]triazol-4-yl]methoxy]pyrimidine] | 0.015 µM
28 | Fc1ccc(-n2cc(COc3ncccn3)nn2)cc1C(F)F [Example 25, 2-((1-(3-(difluoromethyl)-4-fluorophenyl)-1H-1,2,3-triazol-4-yl)methoxy)pyrimidine] | 0.05 µM
29 | Fc1ccc(-n2cc(COc3ncc(C(F)(F)F)cn3)nn2)cc1C(F)(F)F [Example 76, 2-[[1-[4-Fluoro-3-(trifluoromethyl)phenyl]triazol-4-yl]methoxy]-5-(trifluoromethyl)pyrimidine] | 0.035 µM
30 | Cn1ccc(NCc2cn(-c3ccc(F)c(C(F)F)c3)nn2)n1 [Example 100, N-[[1-[3-(Difluoromethyl)-4-fluoro-phenyl]triazol-4-yl]methyl]-1-methyl-pyrazol-3-amine] | 0.894 µM
31 | Cc1ccc(OCc2cn(-c3ccc(Cl)c(OC(F)F)c3)nn2)cn1 [Example 104, 5-[[1-[4-Chloro-3-(difluoromethoxy)phenyl]triazol-4-yl]methoxy]-2-methyl-pyridine] | 0.729 µM
32 | FC(F)c1cc(-n2cc(COc3ccccn3)nn2)ccc1Cl [Example 11, 2-[[1-[4-Chloro-3-(difluoromethyl)phenyl]triazol-4-yl]methoxy]pyridine] | 1.2 µM
33 | Cc1cnc(O[C@H](C)c2cn(-c3ccc(Cl)c(OC(F)F)c3)nn2)nc1 [Example 376, 2-[(1R)-1-[1-[4-Chloro-3-(difluoromethoxy)phenyl]triazol-4-yl]ethoxy]-5-methyl-pyrimidine] | 0.011 µM
34 | FC(F)Oc1cc(-n2cc(CNc3ncco3)nn2)ccc1Cl [Example 97, N-[[1-[4-Chloro-3-(difluoromethoxy)phenyl]triazol-4-yl]methyl]oxazol-2-amine] | 0.106 µM
35 | COc1cnc(OCc2cn(-c3ccc(F)c(CCCF)c3)nn2)nc1 [Example 194, 2-[[1-[4-Fluoro-3-(3-fluoropropyl)phenyl]triazol-4-yl]methoxy]-5-methoxy-pyrimidine] | 0.061 µM
36 | CC(F)(F)c1cc(-n2cc(COc3ncc(C(F)(F)F)cn3)nn2)ccc1F [Example 71, 2-[[1-[3-(1,1-Difluoroethyl)-4-fluoro-phenyl]triazol-4-yl]methoxy]-5-(trifluoromethyl)pyrimidine] | 0.04 µM
37 | CNc1ccnc(OCc2cn(-c3cccc(OC(F)(F)F)c3)nn2)n1 [Example 352, N-Methyl-2-[[1-[3-(trifluoromethoxy)phenyl]triazol-4-yl]methoxy]pyrimidin-4-amine] | 0.068 µM
38 | Fc1cccnc1OCc1cn(-c2ccc(Cl)c(OC(F)F)c2)nn1 [Example 107, 2-[[1-[4-Chloro-3-(difluoromethoxy)phenyl]triazol-4-yl]methoxy]-3-fluoro-pyridine] | 0.119 µM
39 | FC(F)c1ccnc(OCc2cn(-c3ccc4c(c3)CCC4)nn2)n1 [Example 370, 4-(Difluoromethyl)-2-[(1-indan-5-yltriazol-4-yl)methoxy]pyrimidine] | 0.397 µM
40 | Nc1ccnc(OCc2cn(-c3cccc(OC(F)(F)F)c3)nn2)n1 [Example 353, 2-[[1-[3-(Trifluoromethoxy)phenyl]triazol-4-yl]methoxy]pyrimidin-4-amine] | 0.525 µM
41 | CCc1cc(-n2cc(COc3ncc(C(C)(C)O)cn3)nn2)ccc1F [Example 182, 2-[2-[[1-(3-Ethyl-4-fluoro-phenyl)triazol-4-yl]methoxy]pyrimidin-5-yl]propan-2-ol] | 0.027 µM

— patent publication US10233173B2, “Substituted 1,2,3-triazoles as NR2B-selective NMDA modulators” (JANSSEN PHARMACEUTICA NV, priority 2016, dated 2019)
